According to PMC12040169 (PLOS Biology, 2025):

Assay: in vitro
Conditions: human, hela cells, % viability

Row | SMILES | viability at 28.5 h, 10 µM
1 | O=C(CN(Cc1ccc(F)cc1)S(=O)(=O)c1ccc(Cl)cc1)Nc1ccc2c(c1)OCCO2 [CBK265346] | 90.2%
2 | CN(C)CCNc1ncnc2sc3c(c12)CCC3 [CBK265347] | 69.5%
3 | COc1cc(/C=C2\NC(=O)N(Cc3ccc([N+](=O)[O-])cc3)C2=O)ccc1OC(C)C(=O)O (centres unmarked) [CBK265348] | 107%
4 | O=C(O)CC(NC(=O)OCc1ccccc1)c1ccccc1 (centres unmarked) [CBK265351] | 107%
5 | CC(C)(C)c1ccc(OCC(=O)Nc2ccc(S(=O)(=O)N3CCc4ccccc43)cc2)cc1 [CBK265352] | 100%
6 | O=C(CN(c1cccc(Cl)c1)S(=O)(=O)c1ccc(Cl)cc1)NCc1ccco1 [CBK265356] | 106%
7 | CC(=O)Nc1ccc(S(=O)(=O)Oc2ccc(/C=C3\SC(=N)NC3=O)cc2Cl)cc1 [CBK265357] | 100%
8 | c1ccc(Cn2c(-c3ccccc3)c(-c3ccccc3)c3c2ncn2nc(-c4cccnc4)nc32)cc1 [CBK265359] | 109%
9 | Sc1nnc(COc2ccccc2)n1/N=C/c1ccncc1 [CBK265360] | 100%
10 | Cc1ccc2nc(-c3ccc(N4C(=O)CC(N5CCN(CCOCCO)CC5)C4=O)cc3)sc2c1 (centres unmarked) [CBK265362] | 86.1%
11 | O=C(CN1CCN(CCN2C(=O)c3cccc4cccc(c34)C2=O)CC1)c1ccc(Cl)cc1 [CBK265363] | 78.1%
12 | COC(=O)Nc1ccc(S(=O)(=O)N2CCCC(C(=O)O)C2)cc1 (centres unmarked) [CBK265364] | 98.5%
13 | COc1cccc(NC(=O)CN(c2ccccc2)S(=O)(=O)c2ccc(Cl)cc2)c1 [CBK265366] | 102%
14 | CSc1nc(O)c(C(c2cccc([N+](=O)[O-])c2)c2c(O)nc(SC)nc2O)c(O)n1 [CBK265370] | 80.5%
15 | Cc1cc(NS(=O)(=O)c2ccc(NC(=O)c3ccc(Br)cc3)cc2)no1 [CBK265371] | 95.6%
16 | COc1ccc(CCNC(=O)/C=C/C(=O)O)cc1OC [CBK265373] | 103%
17 | c1ccc(-c2c(-c3ccccc3)n(Cc3ccco3)c3ncn4nc(-c5cccnc5)nc4c23)cc1 [CBK265374] | 100%
18 | O=C(O)c1ccc(N(Cc2ccccc2)S(=O)(=O)c2ccccc2)cc1 [CBK265375N] | 92.8%
19 | O=C(O)C(Cc1c[nH]c2ccccc12)N1C(=O)C2C3c4ccccc4C(c4ccccc43)C2C1=O (centres unmarked) [CBK265377] | 91.4%
20 | Cc1cc(C)n2c(SCC(=O)c3ccccc3)nnc2n1 [CBK265378] | 84.3%
21 | O=C(NCCN1CCOCC1)c1cc(-c2ccc(Cl)cc2Cl)nc2ccccc12 [CBK265379] | 113%
22 | NC(=O)c1c(NC(=O)COc2ccc3ccccc3c2)sc2c1CCCCC2 [CBK265380] | 112%
23 | CCC(=O)N(Cc1cc2cc(C)ccc2nc1O)c1ccc(C)c(C)c1 [CBK265381] | 107%
24 | CC(NC(=O)C1C2C=CC(C2)C1C(=O)O)c1ccccc1 (centres unmarked) [CBK265384] | 109%
25 | Cc1c(-c2ccc(Cl)cc2Cl)nc2ccccc2c1C(=O)NCc1ccc(S(N)(=O)=O)cc1 [CBK265387] | 101%

Row | SMILES | viability at 28.5 h, 10 µM
26 | O=C(O)c1cc(-c2cc(Cl)ccc2Cl)nc2ccccc12 [CBK265391] | 96.1%
27 | CC(Oc1ccc(Cl)cc1Cl)C(=O)Nc1sc2c(c1C(N)=O)CCCCCC2 (centres unmarked) [CBK265394] | 85.8%
28 | CC(=O)Nc1ccc(NC(=O)CCC(=O)O)cc1C [CBK265395] | 95.3%
29 | CCOC(=O)c1ccc(N2C(=O)CC(N3CCN(c4cccc(OC)c4)CC3)C2=O)cc1 (centres unmarked) [CBK265396] | 101%
30 | CC1Cc2ccccc2N1C(=O)CSc1nnc2sc3ccccc3n12 (centres unmarked) [CBK265398] | 94%
31 | COC(=O)c1cc(NC(=O)c2cc(-c3ccc(C)o3)nc3ccccc23)cc(C(=O)OC)c1 [CBK265400] | 86.3%
32 | Cc1cc(NC(=O)C(=O)NCCN2CCN(S(C)(=O)=O)CC2)ccc1Br [CBK265401] | 85.4%
33 | Cc1ccc(-c2cc(C(=O)NCc3cccnc3)c3ccccc3n2)cc1C [CBK265402] | 97.5%
34 | O=C(O)C1C2C=CC(C2)C1C(=O)NCc1ccncc1 (centres unmarked) [CBK265403] | 102%
35 | CCCCC(CC)CN1CNC(=S)NC1 (centres unmarked) [CBK265404] | 105%
36 | O=c1cc2oc3cc(O)c(O)cc3c(-c3ccc(OCc4cccc([N+](=O)[O-])c4)cc3)c-2cc1O [CBK265408] | 75.3%
37 | O=C(CCc1ccccc1)Nc1cccc(N2C(=O)C3C4c5ccccc5C(c5ccccc54)C3C2=O)c1 (centres unmarked) [CBK265409] | 91.1%
38 | O=C(c1ccccc1)C(Sc1nnc2sc3ccccc3n12)c1ccccc1 (centres unmarked) [CBK265416] | 84.2%
39 | O=C(CN1CCCCC1)Nc1ccc(NC(=O)CN2CCCCC2)cc1 [CBK265421] | 86.3%
40 | CCC1CCc2c(sc(NC(=O)C3C4CCC(C4=C(C)C)C3C(=O)O)c2C(=O)OC)C1 (centres unmarked) [CBK265424] | 102%
41 | Cc1ccc(N(Cc2cc3cccc(C)c3nc2O)C(=O)c2cccc([N+](=O)[O-])c2)cc1 [CBK265426] | 98.2%
42 | CCOc1ccc(N(Cc2cc3cc(C)ccc3nc2O)C(=O)c2ccccc2OC)cc1 [CBK265427] | 103%
43 | CC1=C(C)CC(C(=O)Nc2sc3c(c2C(=O)OC(C)C)CCCC3)C(C(=O)O)C1 (centres unmarked) [CBK265428] | 87%
44 | Cc1noc(NS(=O)(=O)c2ccc(NC(=O)/C=C/c3ccc(C(C)C)cc3)cc2)c1C [CBK265430] | 89.2%
45 | Cc1ccc(S(=O)(=O)N2CCN(c3ccc([N+](=O)[O-])c(NCCN4CCOCC4)c3)CC2)cc1 [CBK265432] | 102%
46 | CN1CCN(C2CC(=O)N(c3ccc(Oc4ccccc4)cc3)C2=O)CC1 (centres unmarked) [CBK265434] | 103%
47 | O=C(CCCc1ccccc1)Nc1scc2c(=O)oc3ccccc3c12 [CBK265435] | 90.1%
48 | COC(=O)COc1ccc(C(NC(=O)c2ccccc2)C(Cl)(Cl)Cl)cc1 (centres unmarked) [CBK265437] | 97.8%
49 | CCOC(=O)c1c(NC(=O)C2C3CCC(C3=C(C)C)C2C(=O)O)sc2c1CCCCC2 (centres unmarked) [CBK265439] | 106%
50 | O=C(C1CCCN(C2CCN(Cc3ccccc3)CC2)C1)N1CCN(c2ccccc2)CC1 (centres unmarked) [CBK265440G] | 113%

Row | SMILES | viability at 28.5 h, 10 µM
51 | Cc1cc(Cl)ccc1OC(C)C(=O)NCc1ccccn1 (centres unmarked) [CBK265441] | 98.8%
52 | Cc1ccc(N(Cc2cc3ccccc3nc2O)C(=O)c2cccnc2)cc1 [CBK265442] | 85.5%
53 | CC(CNC(=O)C(C)(C)C)NC(=O)C(C)(C)C (centres unmarked) [CBK265443] | 93.6%
54 | O=C(CCCc1ccccc1)Nc1ccc(F)cc1[N+](=O)[O-] [CBK265446] | 99.9%
55 | COc1ccc(NC(=O)CCC(=O)O)c(OC)c1 [CBK265451] | 104%
56 | COC(=O)c1c(NC(=O)COc2ccccc2Cl)sc2c1CCC(c1ccccc1)C2 (centres unmarked) [CBK265456] | 90.3%
57 | O=C(NCCCn1ccnc1)Nc1cccc(Cl)c1 [CBK265458] | 93.9%
58 | O=C(O)C1CC=CCC1C(=O)NCCCCc1ccccc1 (centres unmarked) [CBK265460] | 98.7%
59 | Cc1ccc(S(=O)(=O)NCCN2CCN(S(=O)(=O)c3ccc(C)cc3)CC2)cc1 [CBK265461] | 115%
60 | O=C(O)CCC(=O)NCCCc1ccccc1 [CBK265465] | 86.7%
61 | CC1CCc2c(sc(NC(=O)c3cnccn3)c2C(N)=O)C1 (centres unmarked) [CBK265466] | 90.7%
62 | CC1CCN(CCN2CCn3c2nc2ccccc23)CC1 [CBK265467B] | 80%
63 | CCOC(=O)c1c(NC(=O)C2CCCCC2C(=O)O)sc(C)c1C (centres unmarked) [CBK265469] | 99.2%
64 | O=C(NCCCN1CCOCC1)c1cc(Cl)ccc1[N+](=O)[O-] [CBK265470] | 108%
65 | CCCOC(=O)c1c(NC(=O)C2C3C=CC(C3)C2C(=O)O)sc2c1CCC(C)C2 (centres unmarked) [CBK265473] | 87.5%
66 | Cc1cc(NS(=O)(=O)c2ccc(NC(=O)/C=C/c3ccc(C)o3)cc2)nc(C)n1 [CBK265474] | 96.5%
67 | O=C(NCCCn1ccnc1)c1cc(-c2cccc(Br)c2)nc2ccccc12 [CBK265476] | 91.4%
68 | CC(Oc1cccc(Cl)c1)C(=O)NCc1ccc(S(N)(=O)=O)cc1 (centres unmarked) [CBK265477] | 97%
69 | COc1ccc(N2CCN(c3nc(NCCO)nc(OC)n3)CC2)cc1 [CBK265478] | 103%
70 | CC(Nc1cc(N2CCN(S(=O)(=O)N(C)C)CC2)ccc1[N+](=O)[O-])C12CC3CC(CC(C3)C1)C2 (centres unmarked) [CBK265479] | 115%
71 | O=C(O)C1CC=CCC1C(=O)NCc1ccncc1 (centres unmarked) [CBK265481] | 89.2%
72 | CCOC(=O)Cn1nc(-c2nonc2N)nc1-c1nonc1N [CBK265482] | 88.5%
73 | COc1ccc(/C=C/C(=O)NCc2ccc(S(N)(=O)=O)cc2)cc1OC [CBK265483] | 91%
74 | Cc1ccc(C)c(NC(CC(=O)c2ccccc2)C(=O)O)c1 (centres unmarked) [CBK265485] | 102%

Same assay, conditions: human, hela cells, % viability, bulk resorufin, single well

Row | SMILES | viability at 28.5 h, 10 µM
75 | Oc1ccc(Br)cc1C(c1c(O)nc(S)nc1O)c1c(O)nc(S)nc1O [CBK265367] | 103%
76 | COc1ccc(CCN2C(=O)NC(=O)/C(=C\c3c(C)[nH]c4ccccc34)C2=O)cc1OC [CBK265368] | 81.6%
77 | O=C1NC(=O)N(c2ccc(O)cc2)C(=O)/C1=C/c1cc(Cl)c(OCc2ccccc2)c(Cl)c1 [CBK265385] | 78.1%
78 | COC(=O)c1ccc(N2C(=O)NC(=O)/C(=C\c3ccc(OCC(=O)O)cc3)C2=O)cc1 [CBK265407] | 85.2%
79 | COc1cc(/C=C2\C(=O)NC(=O)N(c3ccc([N+](=O)[O-])cc3)C2=O)ccc1OCC(=O)O [CBK265418] | 100%
80 | O=C(O)COc1ccccc1/C=C1\C(=O)NC(=O)N(c2ccc(OCc3ccccc3)cc2)C1=O [CBK265419] | 114%
81 | COc1cc(/C=C2\C(=O)NC(=O)N(c3ccc([N+](=O)[O-])cc3)C2=O)cc(Cl)c1OCC(=O)O [CBK265431] | 98.3%
82 | O=C(O)COc1ccccc1/C=C1\C(=O)NC(=O)N(c2ccc(O)cc2)C1=O [CBK265436] | 85.2%
83 | O=C1NC(=O)N(c2cccc([N+](=O)[O-])c2)C(=O)/C1=C\c1ccccc1OCc1ccc(C(=O)O)cc1 [CBK265484] | 106%
